In PubChem BioAssay (NCI):
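1) Cells in 96-well plates. 2) Compound, 48 h, 5 concentrations. 3) Linear interpolation between surrounding doses. 4) Unreached endpoint = highest concentration. Abbreviation: GI50, concentration required for 50% inhibition of growth. TGI denotes the concentration required for complete inhibition of growth.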

Legend:
Test in all cases: inhibition of tumour cell growth, NCI panel, 48 h
[1] = tested on: A549 NSCLC
[2] = tested on: CCRF-CEM leukemia
[3] = tested on: COLO 205 colon
[4] = tested on: HT29 colon
[5] = tested on: LOX IMVI melanoma
[6] = tested on: MDA-MB-231 breast
[7] = tested on: NCI-H460 lung
[8] = tested on: OVCAR-5 ovarian
[9] = tested on: RPMI-8226 leukemia
[10] = tested on: RXF 393 renal

SMILES	GI50 [1]	TGI [1]	GI50 [2]	TGI [2]	GI50 [3]	TGI [3]	GI50 [4]	TGI [4]	GI50 [5]	TGI [5]	GI50 [6]	TGI [6]	GI50 [7]	TGI [7]	GI50 [8]	TGI [8]	GI50 [9]	TGI [9]	GI50 [10]	TGI [10]
COC1CC2C=C(C)/C=C/C=C/C(=O)NC(c3ccccc3)C/C=C/CCC(O)CC(=O)C2=C1O (configuration not stated)	0.241 µM	1.15 µM	0.284 µM	1.3 µM	0.159 µM	0.315 µM	0.238 µM	0.854 µM	0.297 µM	1.22 µM	0.27 µM	0.961 µM	0.24 µM	1.19 µM	0.357 µM	1.24 µM	0.186 µM	0.566 µM	0.314 µM	1.09 µM
CCCCNN	–	> 100 µM	–	> 100 µM	–	> 100 µM	–	> 100 µM	–	> 100 µM	–	> 100 µM	–	–	–	> 100 µM	–	> 100 µM	–	> 100 µM
OCCSCc1ccccc1	–	> 100 µM	–	> 100 µM	–	> 100 µM	–	> 100 µM	–	> 100 µM	–	> 100 µM	–	> 100 µM	–	> 100 µM	–	> 100 µM	–	> 100 µM
CCN1C(=S)N(CC)C2C1NC(=S)N2/N=C/C=C/c1ccccc1 (configuration not stated)	2.52 µM	17.8 µM	1.26 µM	12 µM	1.11 µM	4.4 µM	0.511 µM	12.1 µM	2.81 µM	17 µM	2.75 µM	14.6 µM	1.79 µM	12.7 µM	3.92 µM	16.9 µM	1.97 µM	6.64 µM	1.57 µM	6.58 µM
CC/C=C\C[C@H](O)C/C=C1/C(=O)C=C[C@@H]1C/C=C\CCCC(=O)N(C)C	3.01 µM	11.3 µM	0.817 µM	5.61 µM	1.45 µM	3.3 µM	0.853 µM	2.97 µM	0.356 µM	1.54 µM	3.12 µM	8.95 µM	2.37 µM	7.4 µM	2.46 µM	5.51 µM	0.671 µM	6.01 µM	1.73 µM	3.26 µM
O=c1nc(Nc2cccc(Cl)c2)oc2cc(Cl)oc(=O)c12	19.7 µM	60.6 µM	2.87 µM	14.9 µM	10.8 µM	23.7 µM	9.39 µM	29.3 µM	11.9 µM	> 100 µM	5.78 µM	30.9 µM	16.7 µM	39.9 µM	18.5 µM	46.2 µM	4.02 µM	43.1 µM	3.22 µM	8.52 µM
C=C1C(=O)OC2CC1C(O)C/C(C)=C/CC/C(C)=C/C(O)CC2C (configuration not stated)	–	28.1 µM	–	1.34 µM	–	2.94 µM	–	4.61 µM	–	2.74 µM	–	12.4 µM	–	10.8 µM	–	24.7 µM	–	6.23 µM	–	2.96 µM
Cc1sc(C)c(Cc2c(C)sc(C)c2CCl)c1CCl	> 100 µM	> 100 µM	> 100 µM	> 100 µM	> 100 µM	> 100 µM	> 100 µM	> 100 µM	> 100 µM	> 100 µM	> 100 µM	> 100 µM	> 100 µM	> 100 µM	> 100 µM	> 100 µM	> 100 µM	> 100 µM	> 100 µM	> 100 µM
NNc1nc2ccccc2c(=O)n1NC(=O)C(=O)Nc1cccc(C(F)(F)F)c1	–	> 100 µM	–	> 100 µM	–	–	–	> 100 µM	–	> 100 µM	–	> 100 µM	–	> 100 µM	–	> 100 µM	–	> 100 µM	–	> 100 µM
Cn1c(=O)c(Oc2ccccc2F)cc2cnc(NC3CCOCC3)nc21	> 25 µM	> 25 µM	> 25 µM	> 25 µM	> 25 µM	> 25 µM	> 25 µM	> 25 µM	> 25 µM	> 25 µM	> 25 µM	> 25 µM	> 25 µM	> 25 µM	> 25 µM	> 25 µM	> 25 µM	> 25 µM	> 25 µM	> 25 µM
CCOC(=O)C(=Cc1ccccc1[N+](=O)[O-])C(=O)OCC	4.05 µM	17.5 µM	3.13 µM	20.6 µM	2.14 µM	3.85 µM	3.27 µM	9.39 µM	1.58 µM	3.51 µM	2.48 µM	7.59 µM	3.25 µM	10.8 µM	5.75 µM	15.7 µM	3.69 µM	18.3 µM	1.33 µM	2.78 µM
COCCOC(=O)NC(=O)Nc1ccc(/C(=N/O)c2ccc(Cl)cc2)cc1	0.284 µM	> 85.3 µM	0.0989 µM	28.1 µM	0.14 µM	2.28 µM	0.108 µM	15.3 µM	0.144 µM	23.7 µM	0.166 µM	11 µM	0.129 µM	13.7 µM	0.308 µM	52.8 µM	0.129 µM	19 µM	0.0866 µM	3.2 µM
Cc1cc(C)c(C[N+](C)(C)C)c(C)c1C	0.281 µM	39.1 µM	0.201 µM	> 67.5 µM	0.236 µM	1.85 µM	0.388 µM	17.4 µM	0.306 µM	9.13 µM	0.471 µM	25.8 µM	0.367 µM	> 100 µM	0.48 µM	> 62.1 µM	0.588 µM	15.9 µM	0.249 µM	3.43 µM
CC(C)c1ccc(C(=O)Nc2sc3c(c2C#N)CCC(=O)C3)cc1	1.63 µM	> 100 µM	0.189 µM	> 100 µM	0.49 µM	2.87 µM	0.465 µM	> 21.9 µM	0.39 µM	> 33.4 µM	0.594 µM	2.88 µM	1.14 µM	> 35.9 µM	0.552 µM	5.11 µM	0.152 µM	–	0.271 µM	1.14 µM
CN1CCCN(C)C1c1cc([N+](=O)[O-])ccc1O	–	> 100 µM	–	48.5 µM	–	> 100 µM	–	> 100 µM	–	> 100 µM	–	> 100 µM	–	> 100 µM	–	> 100 µM	–	> 100 µM	–	> 100 µM
COc1cc2c3c(n(CCCNCCN)c(=O)c2cc1OC)-c1cc2c(cc1C3=O)OCO2	1.61 µM	13.7 µM	< 0.0105 µM	0.339 µM	> 100 µM	> 100 µM	1.08 µM	10.4 µM	0.0299 µM	0.244 µM	0.343 µM	2.48 µM	1.24 µM	> 49.9 µM	1.39 µM	10.5 µM	0.475 µM	3.02 µM	5.36 µM	> 51.8 µM
COC(=O)c1c2c(c(C)[n+]([O-])c1C)C(=O)C=C(NCc1ccc(F)c(F)c1)C2=O	0.48 µM	2.2 µM	0.409 µM	2.47 µM	0.257 µM	0.713 µM	0.304 µM	3.17 µM	0.0825 µM	1.39 µM	0.251 µM	1.83 µM	0.45 µM	1.79 µM	1.14 µM	2.49 µM	0.783 µM	3.23 µM	1.05 µM	2.39 µM
C#CC1(O)C(COP(=O)(O)OC2CC(n3cc(F)c(=O)[nH]c3=O)OC2CO)OC(n2ccc(N)nc2=O)C1O (configuration not stated)	< 0.01 µM	> 54.4 µM	< 0.0129 µM	–	< 0.01 µM	1.61 µM	< 0.0139 µM	> 100 µM	< 0.01 µM	1.87 µM	0.0731 µM	> 61.9 µM	< 0.01 µM	> 32.1 µM	0.154 µM	> 33.5 µM	< 0.01 µM	–	< 0.0342 µM	2.37 µM
O=[N+]([O-])c1ccc(N/N=C/c2c(O)ccc3ccccc23)nc1	27.7 µM	> 100 µM	0.918 µM	> 100 µM	30.5 µM	> 100 µM	> 100 µM	> 100 µM	1.26 µM	> 100 µM	15.9 µM	> 100 µM	3.3 µM	> 100 µM	> 100 µM	> 100 µM	> 100 µM	> 100 µM	> 100 µM	> 100 µM
NNc1cccc(/C=C/c2ccccc2)cc1=O	7.78 µM	> 100 µM	1.36 µM	29.5 µM	7.76 µM	> 100 µM	10.7 µM	> 100 µM	5.07 µM	> 100 µM	4.73 µM	> 100 µM	3.61 µM	42.3 µM	45.9 µM	> 100 µM	3.85 µM	> 100 µM	46.5 µM	> 100 µM
O=C1CSC(/C(=C\c2ccc(Cl)cc2)c2nc3ccccc3[nH]2)=N1	–	16.4 µM	–	> 75.7 µM	–	36.4 µM	–	46.5 µM	–	32.4 µM	–	28.3 µM	–	32.2 µM	–	33.5 µM	–	> 100 µM	–	2.14 µM
C1CSCCCSCCSCCCSC1	–	> 100 µM	–	–	–	> 100 µM	–	> 100 µM	–	> 100 µM	–	> 100 µM	–	> 100 µM	–	> 100 µM	–	> 100 µM	–	> 100 µM
Nc1nnc2cc(Cl)ccc2n1	73.2 µM	> 100 µM	> 100 µM	> 100 µM	> 100 µM	> 100 µM	–	–	> 100 µM	> 100 µM	> 100 µM	> 100 µM	> 100 µM	> 100 µM	> 100 µM	> 100 µM	> 100 µM	> 100 µM	> 100 µM	> 100 µM
COC(=O)c1sc(C(=O)OC)c2c1CSC2	–	> 100 µM	–	> 100 µM	–	> 100 µM	–	> 100 µM	–	> 100 µM	–	> 100 µM	–	> 100 µM	–	> 100 µM	–	> 100 µM	–	> 97.1 µM
O=C(c1ccc2ncc(-c3nc(NC4CC4)ncc3F)n2c1)N1CCOCC1	2.48 µM	> 100 µM	1.72 µM	4.74 µM	–	–	2.22 µM	13.1 µM	1.11 µM	41.4 µM	2.4 µM	8.98 µM	2.91 µM	> 100 µM	2.16 µM	8.97 µM	1.98 µM	5.32 µM	1.07 µM	3.02 µM
COc1cc(/C=C2\CC3C4CC=C5C[C@@H](OC(C)=O)CC[C@]5(C)C4CC[C@]3(C)C2=O)ccc1OCCCn1ccnc1 (some centres not stated)	13 µM	33.9 µM	–	–	20.7 µM	> 50 µM	16 µM	> 50 µM	8.63 µM	15.5 µM	8.05 µM	15.4 µM	9.32 µM	21.1 µM	11.9 µM	40.9 µM	9.66 µM	24.2 µM	13 µM	30.3 µM
O=C(Nc1ccc(Cl)cc1)c1ccc(NC2=C(Cl)C(=O)N(Cc3ccccc3)C2=O)cc1	16.3 µM	39.9 µM	–	–	30.3 µM	> 100 µM	20 µM	> 100 µM	12.7 µM	32.7 µM	13.9 µM	38.1 µM	25.1 µM	> 100 µM	14.1 µM	28.1 µM	2.7 µM	12.4 µM	18.3 µM	44.9 µM
COc1ccc(-c2cc(/C=C3\C(=O)Nc4ccc(Cl)cc43)[nH]n2)cc1	6.54 µM	18.5 µM	3.32 µM	16.6 µM	2.08 µM	4.7 µM	3.35 µM	10.9 µM	–	–	3.58 µM	15.5 µM	3.81 µM	13 µM	8.67 µM	21.1 µM	4.04 µM	18 µM	5.61 µM	19.1 µM
C[C@]1(CO)[C@H]2CC[C@@]34C=C[C@@](CO)(CC[C@H]3[C@]2(C)CC[C@H]1O)C4	–	> 100 µM	–	> 100 µM	–	> 100 µM	–	> 100 µM	–	> 100 µM	–	> 100 µM	–	–	–	> 100 µM	–	86.6 µM	–	> 100 µM
Nc1ccc2c(c1)NCCN2	–	> 100 µM	–	–	–	> 100 µM	–	> 100 µM	–	> 100 µM	–	> 100 µM	–	> 100 µM	–	> 100 µM	–	> 100 µM	–	> 100 µM
